Data taken from patent US4430343A, “Benzimidazole derivatives, process for the preparation thereof and pharmaceutical composition containing the same” (Kanebo, Ltd., priority 1981, dated 1984).
Structures can show the parent of a compound that is named as a salt.

Tests used:
[1] = system: histamine-induced lethality; experiment: Protecting activity against histamine-induced lethality (method similar to Labell & Tislow); assay type: in vivo, Hartley strain male guinea pigs; details: for protecting activity against histamine-induced lethality in comparison with that of the compounds of the present invention: relative to compounds of the present invention; for ED50: Cavia porcellus, guinea pigs, oral, 1 hour before histamine 1.1 mg/kg into cephalic vein, survival after two hours, probit method
Description: 1. Protecting activity against histamine-induced lethality
(3) Homochlorcyclizine hydrochloride (reference compound)
The test was carried out by a method similar to Labell & Tislow method (cf. J. Pharmacol Exp. Ther., 113, 72, 1955). […] After one hour, histamine (1.1 mg/kg, in a physiological saline solution) was injected to the animals in cephalic vein. After two hours, the number of live guinea pigs was counted, and therefrom ED50 of the compounds was calculated according to probit method.

in vivo = details: mouse, ddY male mice, oral, observed one week, Weil's method, read-out: Acute toxicity LD50
Description: The same compounds as used in the above protecting activity against histamine were used.
The LD50 was calculated based on the number of dead mice within one week according to Weil's method.

[2] = system: hexobarbital-induced sleep; experiment: Potentiating effect on hexobarbital-induced sleep in mice; assay type: in vivo
From the text: Besides, the conventional antihistaminics have side-effect such as hypnotic activity.

Q: With `CN1CCN(c2nc3ccccc3n2Cc2ccccc2)CC1` [1-benzyl-2-(4-methyl-1-piperazinyl)benzimidazole, reference compound] as the molecule, how does the “protecting activity against histamine-induced lethality in comparison with that of the compounds of the present invention” value (from here on “protecting activity”) [1] read?
A: Its value is “about one severals to one tenth or less”.

Q: Which “protecting activity” value [1] does the source give for `CN1CCN(c2nc3ccccc3n2C)CC1` [1-methyl-2-(4-methyl-1-piperazinyl)benzimidazole, reference compound] here?
A: The value was “about one severals to one tenth or less”.

Q: For `CN1CCN(c2nc3ccccc3[nH]2)CC1` [2-(4-methyl-1-piperazinyl)benzimidazole, reference compound], which “protecting activity” value [1] is on record?
A: Its value is “about one severals to one tenth or less”.

Q: Which results are given for `C#CCOCCn1c(N2CCCN(C)CC2)nc2ccccc21` [Example 1, 1-[2-(propargyloxy)ethyl]-2-(4-methyl-1-homopiperazinyl)benzimidazole difumarate]?
A: ED50 [1]: 0.0046 mg/kg; LD50 at 168 h (in vivo): 990 mg/kg

Q: For `C#CCOCCn1c(N2CCN(C)CC2)nc2ccccc21` [Example 2, 1-[2-(propargyloxy)ethyl]-2-(4-methyl-1-piperazinyl)benzimidazole.3/2fumarate], which “potentiating effect on hexobarbital-induced sleep” value (“potentiating effect” below) ([2]; 50 mg/kg (p.o.)) is on record?
A: The value was “did not show such potentiating effect”.

Q: And the ED50 [1]?
A: The ED50 was 0.0047 mg/kg.

Q: And the LD50 at 168 h (in vivo)?
A: Its LD50 at 168 h is 818 mg/kg.

Q: What does the source list for `CCOCCn1c(N2CCCN(C)CC2)nc2ccccc21` [Example 3, 1-[2-(ethoxy)ethyl]-2-(4-methyl-1-homopiperazinyl)benzimidazole.difumarate]?
A: potentiating effect on hexobarbital-induced sleep ([2]; 50 mg/kg (p.o.)): did not show such potentiating effect; ED50 [1]: 0.0047 mg/kg; LD50 at 168 h (in vivo): 628 mg/kg

Q: For `C=CCOCCn1c(N2CCN(C)CC2)nc2ccccc21` [Example 4, 1-[2-(allyloxy)ethyl]-2-(4-methyl-1-piperazinyl)benzimidazole.3/2 fumarate], which ED50 [1] is on record?
A: The ED50 was 0.0058 mg/kg.

Q: What about the LD50 at 168 h (in vivo) of the same molecule?
A: The LD50 at 168 h was 1640 mg/kg.

Q: For `CCOCCn1c(N2CCN(C)CC2)nc2ccccc21` [Example 5, 1-[2-(ethoxy)ethyl]-2-(4-methyl-1-piperazinyl)benzimidazole.3/2 fumarate], which ED50 [1] is on record?
A: Its ED50 is 0.007 mg/kg.

Q: What about the LD50 at 168 h (in vivo) of the same molecule?
A: Its LD50 at 168 h is 1490 mg/kg.

Q: Which results are given for `C=CCOCCn1c(N2CCCN(C)CC2)nc2ccccc21` [Example 6, 1-[2-(allyloxy)ethyl]-2-(4-methyl-1-homopiperazinyl)benzimidazole difumarate]?
A: ED50 [1]: 0.0088 mg/kg; LD50 at 168 h (in vivo): 904 mg/kg

Q: Which ED50 [1] does the source give for `CCCOCCn1c(N2CCCN(C)CC2)nc2ccccc21` [Example 7, 1-[2-(n-propoxy)ethyl]-2-(4-methyl-1-homopiperazinyl)benzimidazole difumarate] here?
A: The ED50 was 0.0095 mg/kg.

Q: And the LD50 at 168 h (in vivo)?
A: The LD50 at 168 h was 884 mg/kg.

Q: With `CCOCCn1c(N2CCNCC2)nc2ccccc21` [Example 8, 1-[2-(ethoxy)ethyl]-2-(1-piperazinyl)benzimidazole.3/2 fumarate] as the molecule, how does the “potentiating effect” value ([2]; 50 mg/kg (p.o.)) read?
A: Its value is “did not show such potentiating effect”.

Q: And the ED50 [1]?
A: Its ED50 is 0.011 mg/kg.

Q: And the LD50 at 168 h (in vivo)?
A: The LD50 at 168 h was 2220 mg/kg.

Q: What does the source list for `CCOCCn1c(N2CCN(CC)CC2)nc2ccccc21` [Example 9, 1-[2-(ethoxy)ethyl]-2-(4-ethyl-1-piperazinyl)benzimidazole.3/2 fumarate]?
A: potentiating effect on hexobarbital-induced sleep ([2]; 50 mg/kg (p.o.)): did not show such potentiating effect; ED50 [1]: 0.013 mg/kg; LD50 at 168 h (in vivo): 2640 mg/kg

Q: Which ED50 [1] does the source give for `CN1CCCN(c2nc3ccccc3n2CCOc2ccccc2)CC1` [Example 10, 1-[2-(phenoxy)ethyl]-2-(4-methyl-1-homopiperazinyl)benzimidazole difumarate] here?
A: Its ED50 is 0.014 mg/kg.

Q: What about the LD50 at 168 h (in vivo) of the same molecule?
A: The LD50 at 168 h was 1010 mg/kg.

Q: With `CCCOCCn1c(N2CCN(C)CC2)nc2ccccc21` [Example 11, 1-[2-(n-propoxy)ethyl]-2-(4-methyl-1-piperazinyl)benzimidazole.3/2 fumarate] as the molecule, how does the ED50 [1] read?
A: Its ED50 is 0.015 mg/kg.

Q: What about the LD50 at 168 h (in vivo) of the same molecule?
A: The LD50 at 168 h was 2300 mg/kg.

Q: For `CN1CCN(c2nc3ccccc3n2CCOc2ccccc2)CC1` [Example 12, 1-[2-(phenoxy)ethyl]-2-(4-methyl-1-piperazinyl)benzimidazole.3/2 fumarate], which ED50 [1] is on record?
A: The ED50 was 0.017 mg/kg.

Q: What about the LD50 at 168 h (in vivo) of the same molecule?
A: The LD50 at 168 h was 1110 mg/kg.

Q: Which “potentiating effect” value ([2]; 25 mg/kg (p.o.)) does the source give for `CN1CCCN(C(c2ccccc2)c2ccc(Cl)cc2)CC1` (stereo not shown) [Homochlorcyclizine hydrochloride, reference compound] here?
A: Its value is “remarkable potentiating effect”.

Q: And the ED50 [1]?
A: Its ED50 is 0.26 mg/kg.

Q: What about the LD50 at 168 h (in vivo) of the same molecule?
A: The LD50 at 168 h was 382 mg/kg.
